Measured values published in patent US9242984B2, “Pyrazolyl derivatives as Syk inhibitors” (Merck Sharp & Dohme Corp., priority 2012, dated 2016).

Target: T1, recombinant human Syk (GST-hSyk fusion protein) (Homo sapiens, UniProt P43405)
T1 construct: purchased Carna Biosciences 08-176
Test: Homogeneous Time-Resolved Fluorescence (HTRF) assay for the recombinant human Syk enzyme
Format: biochemical
Conditions: 10-dose titration, 25 μM ATP; read-out: rhSYK IC50
Procedure, shortened: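 IC50 came from a four-parameter fit over ten doses, 10 μM to 0.508 nM, with HTRF read-out (Eu-anti-pTyr antibody, SA-APC, EDTA stop, 30 min). The enzyme, 5 pM GST-hSyk, met compound for 10 min, then phosphorylated 250 nM biotin-peptide with 25 μM ATP and 5 mM Mg for 45 min at room temperature, pH 7.5.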

IC50 | Structure (SMILES)
27.4 nM | COC(=O)[C@@H](N)Cn1cc(-c2cc(C)cc(Nc3nccc(C(F)(F)F)n3)c2)cn1 [Example 4.1, methyl 3-[4-(3-methyl-5-{[4-(trifluoromethyl)pyrimidin-2-yl]amino}phenyl)-1H-pyrazol-1-yl]-L-alaninate]
3.2 nM | Cc1cc(Nc2nccc(C(F)F)n2)cc(-c2cnn(CC(O)(CO)C(F)(F)F)c2)c1 (single isomer, unassigned) [Example 25.1, 2-((4-(3-((4-(Difluoromethyl)pyrimidin-2-yl)amino)-5-methylphenyl)-1H-pyrazol-1-yl)methyl)-3,3,3-trifluoropropane-1,2-diol]
4.7 nM | Cc1cc(Nc2ncc(F)c(C(F)F)n2)cc(-c2cnn([C@H]3CCC[C@H](O)[C@@H]3O)c2)c1 (relative stereo) [Example 10.12, 3-[4-(3-{[4-(difluoromethyl)-5-fluoro-pyrimidin-2-yl]amino}-5-methylphenyl)-1H-pyrazol-1-yl]cyclohexane-1,2-diol]

Same assay, conditions: IC50 class; 10-dose titration, 25 μM ATP; read-out: rhSYK Activity

Structure (SMILES) | IC50
Cc1cc(Nc2nccc(C(F)(F)F)n2)cc(-c2cnn(CC3(O)CCOC(C)(C)C3)c2)c1 (centres unmarked) [Example 12.9, 2,2-dimethyl-4-{[4-(3-methyl-5-{[4-(trifluoro-methyl)pyrimidin-2-yl]amino}phenyl)-1H-pyrazol-1-yl]methyl}-tetrahydro-2H-pyran-4-ol] | ≤ 100 nM
Cc1cc(Nc2nccc(C(F)F)n2)cc(-c2cnn(CC(C)(C)NC(=O)NCC3CCOCC3)c2)c1 [Example 27.9, 1-{2-[4-(3-{[4-(difluoromethyl)pyrimidin-2-yl]amino}-5-methylphenyl)-1H-pyrazol-1-yl]-1,1-dimethylethyl}-3-(tetrahydro-2H-pyran-4-ylmethyl)urea] | ≤ 100 nM
Cc1cc(Nc2nccc(C(F)(F)F)n2)cc(-c2cnn(CC(=O)N3COCC3(C)C)c2)c1 [Example 3.11, N-(3-{1-[2-(4,4-dimethyl-1,3-oxazolidin-3-yl)-2-oxoethyl]-1H-pyrazol-4-yl}-5-methylphenyl)-4-(trifluoromethyl)pyrimidin-2-amine] | ≤ 100 nM
CCC(C(=O)OC)n1cc(-c2cc(C)cc(Nc3nccc(C(F)(F)F)n3)c2)cn1 (centres unmarked) [Example 3.28, methyl 2-[4-(3-methyl-5-{[4-(trifluoromethyl)pyrimidin-2-yl]amino}-phenyl)-1H-pyrazol-1-yl]butanoate] | ≤ 100 nM
Cc1cc(Nc2nccc(C(F)(F)F)n2)cc(-c2cnn(CCOCCO)c2)c1 [Example 3.19] | ≤ 100 nM
Cc1cc(Nc2nccc(C(F)F)n2)cc(-c2cnn(CC3(O)CCC3)c2)c1 [Example 5.41, 1-{[4-(3-{[4-(difluoromethyl)pyrimidin-2-yl]amino}-5-methylphenyl)-1H-pyrazol-1-yl]methyl}cyclobutanol] | ≤ 100 nM
Cc1cc(Nc2nccc(C3CC3)n2)cc(-c2cnn(CC3CNC(=O)O3)c2)c1 (centres unmarked) [Example 2.19, 5-[(4-{3-[(4-cyclopropylpyrimidin-2-yl)amino]-5-methylphenyl}-1H-pyrazol-1-yl)methyl]-1,3-oxazolidin-2-one] | ≤ 100 nM
Cc1cc(Nc2nccc(C(F)F)n2)cc(-c2cnn(CCNC(=O)CC#N)c2)c1 [Example 26.4, 2-cyano-N-{2-[4-(3-{[4-(difluoromethyl)pyrimidin-2-yl]amino}-5-methylphenyl)-1H-pyrazol-1-yl]ethyl}acetamide] | ≤ 100 nM
Cc1cc(Nc2nccc(C(F)F)n2)cc(-c2cnn(CC(O)(CO)C(F)(F)F)c2)c1 (single isomer, unassigned) [Example 25.1, 2-((4-(3-((4-(Difluoromethyl)pyrimidin-2-yl)amino)-5-methylphenyl)-1H-pyrazol-1-yl)methyl)-3,3,3-trifluoropropane-1,2-diol] | ≤ 100 nM
COC(=O)C(C)n1cc(-c2cc(C)cc(Nc3nccc(C(F)(F)F)n3)c2)cn1 (centres unmarked) [Example 3.29, methyl 2-[4-[3-methyl-5-{[4-(trifluoromethyl)-pyrimidin-2-yl]amino}-phenyl)-1H-pyrazol-1-yl]propanoate] | ≤ 100 nM
Cc1cc(Nc2nccc(C(C)C)n2)cc(-c2cnn(C[C@@H](O)C(=O)O)c2)c1 [Example 11.16, (2R)-2-hydroxy-3-[4-(3-methyl-5-{[4-(1-methylethyl)-pyrimidin-2-yl]amino}phenyl)-1H-pyrazol-1-yl]propanoic acid] | ≤ 100 nM
Cc1cc(Nc2ncc(F)c(C(F)F)n2)cc(-c2cnn([C@H]3CCC[C@H](O)[C@@H]3O)c2)c1 (relative stereo) [Example 10.12, 3-[4-(3-{[4-(difluoromethyl)-5-fluoro-pyrimidin-2-yl]amino}-5-methylphenyl)-1H-pyrazol-1-yl]cyclohexane-1,2-diol] | ≤ 100 nM
COc1ccnc(Nc2cccc(-c3cnn(C[C@H](O)C(=O)O)c3)c2)n1 [Example 11.4, (2S)-2-hydroxy-3-(4-{3-[(4-methoxy-pyrimidin-2-yl)-amino]phenyl}-1H-pyrazol-1-yl)-propanoic acid] | ≤ 100 nM

The remaining lines, values ahead:

IC50 | Structure (SMILES)
≤ 100 nM | Cc1cc(Nc2nccc(C(F)(F)F)n2)cc(-c2cnn(Cc3cc(C)no3)c2)c1 [Example 3.25, N-(3-methyl-5-{1-[(3-methylisoxazol-5-yl)methyl]-1H-pyrazol-4-yl}phenyl)-4-(trifluoromethyl)-pyrimidin-2-amine]
≤ 100 nM | NC(=O)CCn1cc(-c2cccc(Nc3nccc(C(F)(F)F)n3)c2)cn1 [Example 2.15, 3-[4-(3-{[4-(trifluoromethyl)pyrimidin-2-yl]amino}phenyl)-1H-pyrazol-1-yl]propanamide]
≤ 100 nM | COCC(=O)NC(C)(C)Cn1cc(-c2cc(C)cc(Nc3nccc(C(F)F)n3)c2)cn1 [Example 26.3, N-{2-[4-(3-{[4-(difluoromethyl)pyrimidin-2-yl]amino}-5-methylphenyl)-1H-pyrazol-1-yl]-1,1-dimethylethyl}-2-methoxyacetamide]
100 to 1000 nM | CCOC(=O)CCc1cnn(-c2cc(C)cc(Nc3nccc(C4CC4)n3)c2)c1 [Example 19.4, Ethyl 3-(1-{3-[(4-cyclopropylpyrimidin-2-yl)amino]-5-methylphenyl}-1H-pyrazol-4-yl)propanoate]
≤ 100 nM | Cc1cc(Nc2nccc(C(F)F)n2)cc(-c2cnn(C(C[C@@H](C)O)[C@H](C)O)c2)c1 (stereo in doubt) [Example 2.50, 3-[4-(3-{[4-(difluoromethyl)pyrimidin-2-yl]amino}-5-methylphenyl)-1H-pyrazol-1-yl]hexane-2,5-diol]
≤ 100 nM | Cc1cc(Nc2cc(C(F)(F)F)ccn2)nc(-c2cnn(C3CCC(C(N)=O)c4ccccc43)c2)c1 (centres unmarked) [Example 6.14, 4-[4-(4-methyl-6-{[4-(trifluoro-methyl)-pyridin-2-yl]amino}-pyridin-2-yl)-1H-pyrazol-1-yl]-1,2,3,4-tetrahydro-naphthalene-1-carboxamide]
≤ 100 nM | COC(=O)[C@@H](N)Cn1cc(-c2cc(C)cc(Nc3nccc(C(F)(F)F)n3)c2)cn1 [Example 4.1, methyl 3-[4-(3-methyl-5-{[4-(trifluoromethyl)pyrimidin-2-yl]amino}phenyl)-1H-pyrazol-1-yl]-L-alaninate]
≤ 100 nM | CCNC(=O)NC(C)(C)Cn1cc(-c2cc(C)cc(Nc3nccc(C(F)F)n3)c2)cn1 [Example 27.8, 1-{2-[4-(3-{[4-(difluoromethyl)pyrimidin-2-yl]amino}-5-methylphenyl)-1H-pyrazol-1-yl]-1,1-dimethylethyl}-3-ethylurea]
≤ 100 nM | Cc1cc(Nc2nccc(C(F)(F)F)n2)cc(-c2cnn(CC3NC(=O)OC3C)c2)c1 (centres unmarked) [Example 3.107, 5-methyl-4-{[4-(3-methyl-5-{[4-(trifluoromethyl)pyrimidin-2-yl]amino}phenyl)-1H-pyrazol-1-yl]methyl}-1,3-oxazolidin-2-one]
≤ 100 nM | Cc1cc(Nc2nccc(C(F)(F)F)n2)cc(-c2cnn(C(C)c3ccc(C(=O)O)cc3)c2)c1 (centres unmarked) [Example 1.48, 4-{1-[4-(3-methyl-5-{[4-(trifluoromethyl)pyrimidin-2-yl]amino}phenyl)-1H-pyrazol-1-yl]ethyl}benzoic acid]
≤ 100 nM | Cc1cc(Nc2nccc(C(F)F)n2)cc(-c2cnn(Cc3c[nH]cn3)c2)c1 [Example 3.110, 4-(difluoromethyl)-N-{3-[1-(1H-imidazol-4-ylmethyl)-1H-pyrazol-4-yl]-5-methylphenyl}pyrimidin-2-amine]
≤ 100 nM | Cc1ccnc(Nc2cccc(-c3cnn(CC4CNC(=O)O4)c3)c2)n1 (centres unmarked) [Example 2.20, 5-[(4-{3-[(4-methylpyrimidin-2-yl)amino]phenyl}-1H-pyrazol-1-yl)methyl]-1,3-oxazolidin-2-one]
≤ 100 nM | Cc1cc(Nc2nccc(C(F)(F)F)n2)cc(-c2cnn(C[C@@H](O)C(N)=O)c2)c1 [Example 8.2, (2R)-2-hydroxy-3-[4-(3-methyl-5-{[4-(trifluorometh-yl)pyrimidin-2-yl]amino}phenyl)-1H-pyrazol-1-yl]propanamide]
≤ 100 nM | Cc1cc(Nc2cc(C(F)(F)F)ccn2)nc(-c2cnn(CC(O)c3ccc(C(N)=O)cc3)c2)c1 (centres unmarked) [Example 6.16, 4-{1-hydroxy-2-[4-(4-methyl-6-{[4-(trifluoromethyl)-pyridin-2-yl]amino}-pyridin-2-yl)-1H-pyrazol-1-yl]ethyl}-benzamide]
≤ 100 nM | Cc1cc(Nc2nccc(C(F)F)n2)cc(-c2cnn(CC3OC(=O)NC3=O)c2)c1 (centres unmarked) [Example 2.75, 5-{[4-(3-{[4-(difluoromethyl)pyrimidin-2-yl]amino}-5-methylphenyl)-1H-pyrazol-1-yl]methyl}-1,3-oxazolidine-2,4-dione]
≤ 100 nM | Cc1cc(Nc2nccc(C(F)(F)F)n2)cc(-c2cnn(CC3OC(=O)NC3C)c2)c1 (single isomer, unassigned) [Example 23.2, 4-methyl-5-{[4-(3-methyl-5-{[4-(trifluoromethyl)pyrimidin-2-yl]amino}phenyl)-1H-pyrazol-1-yl]methyl}-1,3-oxazolidin-2-one]
